Columns and labels:
[1] = Solubility (pH = 7.44 phosphate); type: physicochemical
caspase-8 = molecular target: T1, caspase-8 (Homo sapiens, UniProt Q14790); experiment: Caspase-8 inhibitory effect (fluorescent substrate AcDEVD-AFC); type: biochemical
T1 construct: p10 and p20 subunits (Thornberry, N. A. et al, Nature, 1992, 356, 768) were expressed in E. coli; made in house; host or cells: E. coli
In short: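 E. coli–expressed p10/p20 caspase-8, 2.1 nM, with 50 μM Ac-DEVD-AFC at 25 °C in 50 mM HEPES pH 7.50, sucrose, CHAPS, NaCl, EDTA, 10 mM DTT over various inhibitor concentrations. Initial rates by fluorescence (ex 405 / em 505); Ki from Lineweaver-Burk plot, Kobs from time-course cleavage equation.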

hepatic cell apoptosis = experiment: Inhibitory effect against apoptosis during the bile stagnation in SD rats (TUNEL staining); type: in vivo, rat; settings: for TUNEL positive cells/field: BDL rats
Protocol: Male Spargue-Dawley rats (6 weeks, Korea Biolink) were kept under the conditions of 22 °C, 55% of relative humidity, and light-darkness cycle of 12 hours. Food and water were supplied ad libitum. For the ligation of biliary duct, the rats were anesthetized by inhalation of 1% halothane, abdomen of the rats were cut open, the distal and proximal biliary ducts were ligated, the part between the ligation sites were cut, 2 ml of saline was injected, and sutured.
Test compound (Iii) was orally administered in a dosage of 3 mg/kg or 10 mg/kg twice a day. That is, the compound was dissolved in a cosolvent (PEG400:ethanol:Tween80=15:7.5:2.5), diluted with phosphate buffer (pH 7.4) by five times, and administered. To the control group was administered the solution without the test compound. The administration was made for 1 week after 1 week from the ligation of biliary duct.
The test compound (Iii) was administered to the SD rats whose biliary ducts were ligated according to the procedure as Step 1 of Experiment 3. After 2 weeks from the operation, the rats were sacrificed. The livers were fixed by 10% neutral formalin and a paraffin section of 5 μm thickness was prepared. TUNEL staining was carried out using ApopTag Peroxidase In Situ Apoptosis Detection kit (Chemicon) according to the manufacturer's instruction. More than 10 sites of the TUNEL stained liver tissue were photographed in 200 magnifications without any overlap, of which result was shown in FIG. 2. The number of cells suffering apoptosis in each test group was counted and represented in the following Table 2. In the following table, the Sham operation means the case where the biliary duct was exposed but not ligated, and the BDL operation means the case where only the vehicle was administered after the ligation of biliary duct.

caspase-1 = molecular target: T2, caspase-1 (Homo sapiens, UniProt P29466); experiment: Caspase-1 inhibitory effect (fluorescent substrate AcYVAD-AFC); type: biochemical; settings: pH 7.5; 25° C., 50 μM AcYVAD-AFC, 10 nM caspase-1; read-out: Caspase-1 Kobs/[I] (converted)
T2 construct: p10 and p20 subunits (Thornberry, N. A. et al, Nature, 1992, 356, 768) were expressed in E. coli; made in house; host or cells: E. coli
T2 sequence (P29466 120-297 limits assumed): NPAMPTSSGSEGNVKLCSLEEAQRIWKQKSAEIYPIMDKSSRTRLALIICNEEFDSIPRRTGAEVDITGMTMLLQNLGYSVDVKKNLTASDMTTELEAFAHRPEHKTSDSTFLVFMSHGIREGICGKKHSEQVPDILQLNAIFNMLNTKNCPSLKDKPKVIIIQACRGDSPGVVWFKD
T2 sequence (P29466 317-404 limits assumed): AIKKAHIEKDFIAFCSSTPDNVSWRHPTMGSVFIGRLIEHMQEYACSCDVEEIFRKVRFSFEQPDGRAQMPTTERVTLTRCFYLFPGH
Protocol: Caspase-1 and caspase-8 known as cysteine proteases in the form of α2β2 were expressed, purified, and activated by modifying a method known in Thornberry, N. A. et al, Nature, 1992, 356, 768. Thornberry, N. A. Methods in Enzymology, 1994, 244, 615. Walker, N. P. C. et al. Cell, 1994, 78, 343, and caspase-9 was also purified by a similar method, and the inhibitory activity against them was tested. Briefly describing, p10 and p20 subunits (Thornberry, N. A. et al, Nature, 1992, 356, 768) were expressed in E. coli and purified by nickel column and anionic exchange chromatography to give caspase-1, caspase-8 and caspase-9. The fluorescent substrate AcYVAD-AFC for thus obtained caspase-1, AcDEVD-AFC for caspase-8, and AcLEHD-AFC for caspase-9 were used for determining specific activity of the synthesized inhibitors. The enzyme reaction was carried out at 25° C. with various concentrations of the inhibitors in a buffer solution containing 50 mM HEPES(pH 7.50), 10% (w/v) sucrose, 0.1% (w/v) CHAPS, 100 mM NaCl, 1 mM EDTA, and 10 mM DTT in the presence of 50 μM AcYVAD-AFC for 10 nM caspase-1, 50 μM AcDEVD-AFC for 2.1 nM caspase-8, and 150 μM AcLEHD-AFC for 200 nM caspase-9. The inhibitory constants Ki and Kobs of the inhibitors were determined by measuring the reaction velocity with the time lapse using a fluorescent spectrometer and by obtaining the initial rate constant. Ki was calculated from the Lineweaver Burk Plot, and Kobs from the following Equation 1. Kobs=−ln(1−At/Aoo)/t Equation 1
At means cleavate rate (%) at time t, and
Aoo means the maximum cleavage rate (%).
Spectra MAX GeminiXS Fluorescent Spectrometer of Molecular Device Co. was used at the excitation wavelength of 405 nm and the emission wavelength of […].

foot edema = experiment: Antiphlogistic effect in rats (carrageenan foot edema); type: in vivo, rat; settings: 3 hours after carrageenan
Protocol: Male SD rats (6 weeks, Orient) were kept under the conditions of 22 °C, 55% of relative humidity, and light-darkness cycle of 12 hours. Food and water were supplied ad libitum. Before the induction of edema, the foot volume of each rat was measured by plethysmometer. Before the induction of edema, vehicle (a mixture of PEG400: ethanol:Tween80=15:7.5:2.5 was diluted by ten times with phosphate buffer) wherein the test compound is dissolved or the vehicle alone was orally administered into the rats. Carrageenan (gamma) was dissolved in the concentration of 1% in saline, and subcutaneously injected into the right rear foot of the rats in the dosage of 100 μl. After 3 hours, the right foot volume was measured again by plethysmometer. The effect of the test compound was shown by edema inhibition (%) (see Table 3). The edema inhibition (%) was calculated according to the following Equation 2. Edema Inhibition (%)=100×(Average of the increased foot volume in the vehicle-administered group−Increased foot volume in the test compound-administered group)/Average of the increased foot volume in the vehicle-administered group Equation 2

T1 sequence (Q14790 217-374 limits assumed, species assumed): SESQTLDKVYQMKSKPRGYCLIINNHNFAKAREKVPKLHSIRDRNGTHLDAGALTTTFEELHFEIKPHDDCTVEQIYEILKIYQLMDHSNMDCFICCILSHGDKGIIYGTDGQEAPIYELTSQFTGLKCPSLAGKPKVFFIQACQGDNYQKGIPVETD
T1 sequence (Q14790 385-479 limits assumed, species assumed): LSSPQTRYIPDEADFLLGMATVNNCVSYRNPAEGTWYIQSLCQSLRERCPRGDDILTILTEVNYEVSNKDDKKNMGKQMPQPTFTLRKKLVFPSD

solubility compared with LB84068MP [1]: improved solubility | increased inhibitory activity against caspase-8 compared with LB84068MP (caspase-8): ≥ 10 times | kinact/KI (caspase-8; pH 7.5, 25° C., 50 μM AcDEVD-AFC, 2.1 nM caspase-8, read-out: Caspase-8 Kobs/[I] (converted)): 217000 M⁻¹ s⁻¹ | kinact/KI (caspase-1): 18300 M⁻¹ s⁻¹
SMILES: CC(C)[C@@]1(C(=O)NC(CC(=O)O)C(=O)CF)CC(c2nccc3ccccc23)=NO1 (stereo partly drawn) [Iii, 5-Fluoro-3-({[(5R)-5-isopropyl-3-(1-isoquinolinyl)-4,5-dihydro-5-isoxazolyl]carbonyl}amino)-4-oxopentanoic acid]
TUNEL positive cells/field (hepatic cell apoptosis; 3 mg/kg orally twice a day for 1 week): 4.12 ± 1.3 TUNEL positive cells/field | TUNEL positive cells/field (hepatic cell apoptosis; 10 mg/kg orally twice a day for 1 week): 5.66 ± 1.34 TUNEL positive cells/field | inhibition of apoptosis (TUNEL staining) (hepatic cell apoptosis; bile stagnation model, rats): 75% | Edema inhibition effect (%) Average (foot edema; 30 mg/kg oral): 20.7% | Edema inhibition effect (%) Average (foot edema; 100 mg/kg oral): 22.7%

— patent publication US7557133B2, “Caspase inhibitors containing isoxazoline ring” (LG Life Sciences Ltd., priority 2003, dated 2009)
